Assay results from patent US20230174486A1, “NON-LYSOSOMAL GLUCOSYLCERAMIDASE INHIBITORS AND USES THEREOF” (ALECTOS THERAPEUTICS lNC., priority 2020, published 2023).

Assays:
human GBA2 = biological target: T1, human GBA2 (Homo sapiens, UniProt Q9HCG7); experiment: Inhibition of GBA2 in cell lysate (4-methylumbelliferone-β-D glucopyranoside substrate); assay type: biochemical; conditions: homogenate of HEK293T cells stably overexpressing human GBA2, pH 5.5, 37° C., GCase inhibitor present
T1 construct: cellular homogenate
T1 sequence (Q9HCG7 1-927): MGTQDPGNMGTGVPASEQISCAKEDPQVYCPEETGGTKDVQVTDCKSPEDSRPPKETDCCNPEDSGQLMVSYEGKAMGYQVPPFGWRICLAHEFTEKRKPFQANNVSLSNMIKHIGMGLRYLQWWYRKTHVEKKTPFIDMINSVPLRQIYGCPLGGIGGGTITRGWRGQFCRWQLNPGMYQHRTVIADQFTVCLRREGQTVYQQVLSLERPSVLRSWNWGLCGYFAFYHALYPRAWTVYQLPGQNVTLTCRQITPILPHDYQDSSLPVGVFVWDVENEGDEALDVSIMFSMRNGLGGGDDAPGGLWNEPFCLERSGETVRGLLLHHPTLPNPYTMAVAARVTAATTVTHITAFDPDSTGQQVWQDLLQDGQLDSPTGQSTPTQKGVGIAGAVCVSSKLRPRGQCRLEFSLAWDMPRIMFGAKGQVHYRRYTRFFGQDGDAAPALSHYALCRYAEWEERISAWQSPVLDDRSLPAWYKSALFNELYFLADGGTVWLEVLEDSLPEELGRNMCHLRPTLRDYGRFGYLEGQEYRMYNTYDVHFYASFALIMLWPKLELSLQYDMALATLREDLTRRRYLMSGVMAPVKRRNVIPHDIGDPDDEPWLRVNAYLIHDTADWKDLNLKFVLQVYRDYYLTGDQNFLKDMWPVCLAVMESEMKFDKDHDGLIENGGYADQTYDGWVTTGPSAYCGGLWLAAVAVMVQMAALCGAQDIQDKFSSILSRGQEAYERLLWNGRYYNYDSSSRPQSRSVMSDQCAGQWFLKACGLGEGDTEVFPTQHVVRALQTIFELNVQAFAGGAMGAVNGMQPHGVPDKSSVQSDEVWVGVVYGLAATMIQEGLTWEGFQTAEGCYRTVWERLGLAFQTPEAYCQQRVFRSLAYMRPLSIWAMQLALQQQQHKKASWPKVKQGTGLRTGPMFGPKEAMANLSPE
Experimental: Stable GBA2-expressing HEK293T cells were generated as follows. The PCR-amplified human GBA2 (GBA2 nucleotide accession number BC011363) using the following primers: Sense 5’---CGCAAATGGGCGGTAGGCGTG---3’ and antisense 5’---TAGTCAGCCATGGGGCGGAGA ---3’) was cloned into pLenti-GIII-CMV by ABM Inc. The correctness of the construct was verified by sequencing. Lentivirus particles containing GBA2 in the pLenti-GIII-CMV plasmid were prepared using a third Generation Virus Packaging Mix (ABM cat# LV053-G074) in HEK293T cells and supplied as a virus particle suspension. The virus suspension was used for infection of HEK293T cells. Cell populations stably expressing human GBA2 were selected using puromycin for several weeks as determined by activity assays and western blot.
Various concentrations of test compounds were prepared in DMSO and then diluted into buffer consisting of 100 mM citric acid, 200 mM disodium phosphate with 1% v/v C10E6, pH 5.5. Cellular homogenates (0.25 mg/mL) of the stable HEK293T-overexpressing GBA2 cell line were preincubated for 10 min on ice with an inhibitor of GCase (20 µM (6R,7R,8S)-8-ethyl-4-azaspiro[2.5]octane-6,7-diol). The reaction solution consisted of 20 µL of 750 µM 4-methylumbelliferone-β-D glucopyranoside in 5% DMSO in the same buffer, 20 µL of GBA2-cellular homogenate pre-treated with (6R,7R,8S)-8-ethyl-4-azaspiro[2.5]octane-6,7-diol and 20 µL of various concentrations of test compound in 10% DMSO in the same buffer. The final concentrations in the reaction were 0.083 mg/mL GBA2-cellular homogenate, 250 µM 4-methylumbelliferone-β-D glucopyranoside, and various concentrations of inhibitor. The inhibitor and GBA2-cellular homogenate were preincubated together for 5 min at 37° C. The reaction was initiated by addition of substrate and allowed to proceed for 20 min at 37° C. to assess GBA2 activity. Reactions were stopped by the addition of an equal volume (60 µL) of 0.5 M NaOH, 0.3 M glycine, pH 10.5. Fluorescence was measured on a Biotek Synergy H4 plate reader at wavelengths of 365 nm for excitation and 450 nm for emission. Incubations without added enzyme or added inhibitors were used to define no enzyme activity and maximal enzyme activity, respectively. IC50 values were determined by fitting the data to a log[inhibitor concentration] versus response curve using GraphPad Prism. IC50 values were calculated as the concentration of inhibitor required to inhibit GBA2 activity by 50%.

[1] = biological target: T2, human non-lysosomal glucosylceramidase (GBA2) (Homo sapiens, UniProt Q9HCG7); experiment: Binding specificity for GBA2 over other molecules (ratio of Ki or IC50 values); assay type: biochemical; conditions: qualitative statement, no values or other enzyme given
T2 sequence (Q9HCG7 1-927): T1 sequence (Q9HCG7 1-927)
Description: In some embodiments, one or more of the compounds according to the invention may specifically bind a GBA2. In alternative embodiments, one or more of the compounds according to the invention may specifically bind the active site of a GBA2. […] In alternative embodiments, one or more of the compounds according to the invention may specifically bind the human non-lysosomal glucosylceramidase (GBA2) over the human lysosomal glucosylceramidase (GCase) and/or the human cytosolic glucosylceramidase (GBA3). In alternative embodiments, one or more of the compounds according to the invention may specifically bind the human non-lysosomal glucosylceramidase (GBA2) over the human glucosylceramide synthase (GCS). In alternative embodiments, one or more of the compounds according to the invention may specifically bind the human non-lysosomal glucosylceramidase (GBA2) over an intestinal alpha-glucosidase, where the intestinal alpha-glucosidase may be a sucrase-isomaltase or a maltase-glucoamylase.

Compound | GBA2 IC50 (human GBA2) | binding specificity, Ki(other molecule)/Ki(GBA2) or IC50(other molecule)/IC50(GBA2) [1]
CCCCOc1ccc(CCN2C[C@H](O)[C@@H](O)[C@H](O)[C@@H]2CO)cc1 [Example 22, (2S,3R,4R,5S)-1-(4-butoxyphenethyl)-2-(hydroxymethyl)piperidine-3,4,5-triol] | ∗∗∗ | enhanced binding specificity
OC[C@@H]1[C@@H](O)[C@H](O)[C@@H](O)CN1CCc1c(F)cccc1F [Example 4, (2R,3R,4R,5S)-1-(2,6-difluorophenethyl)-2-(hydroxymethyl)piperidine-3,4,5-triol] | ∗∗∗ | enhanced binding specificity
OC[C@H]1[C@@H](O)[C@H](O)[C@@H](O)CN1CC1Cc2ccccc2C1 [Example 15, (2S,3R,4R,5S)-1-((2,3-dihydro-1H-inden-2-yl)methyl)-2-(hydroxymethyl)piperidine-3,4,5-triol] | ∗∗∗ | enhanced binding specificity

More lines, now with the values ahead:

GBA2 IC50 (human GBA2) | binding specificity, Ki(other molecule)/Ki(GBA2) or IC50(other molecule)/IC50(GBA2) [1] | Compound
∗∗∗ | enhanced binding specificity | OC[C@H]1[C@@H](O)[C@H](O)[C@@H](O)CN1CC1CCN(c2ccc(F)cc2)CC1 [Example 24, (2S,3R,4R,5S)-1-((1-(4-fluorophenyl)piperidin-4-yl)methyl)-2-(hydroxymethyl)piperidine-3,4,5-triol]
∗∗∗ | enhanced binding specificity | OC[C@H]1[C@@H](O)[C@H](O)[C@@H](O)CN1CCC1CCCCC1 [Example 16, (2S,3R,4R,5S)-1-(2-cyclohexylethyl)-2-(hydroxymethyl)piperidine-3,4,5-triol]
∗∗∗ | enhanced binding specificity | CC(F)(F)[C@H]1CC[C@@H](CN2C[C@H](O)[C@@H](O)[C@H](O)[C@@H]2CO)CC1 [Example 313, (2S,3R,4R,5S)-1-(((1s,4R)-4-(1,1-difluoroethyl)cyclohexyl)methyl)-2-(hydroxymethyl)piperidine-3,4,5-triol]
